# Test results as given in patent US9341616B2, “Sweet taste receptor chimeric proteins and use thereof” (AJINOMOTO CO., INC., priority 2014, dated 2016).
# Residues, ends and D or L forms follow the SMILES beside them.
# Target: h-mT1R2-EX5/T1R3mosaicA (UniProt Q8TE23+Q925D8, A12W/A31M/A537S/A558R/A564V/A568V/A570T/A588V/A645S/A649T/A658V/A698V/A702T/A782V/A793V/A807V/C582S/C678S/E16H/E530V/E534N/E542M/E548N/E725V/F14L/F29L/F525Y/F541I/F612A/F622V/F665L/F695L/G696N/G701T/H528R/H728R/I36V/I490V/I510L/I518V/I595M/I60P/I617V/I643V/I645L/I692L/I695G/I706V/I740A/I803L/K30R/K504M/K555R/K565R/K626T/K714N/K818R/K827G/L17P/L521P/L560F/L571I/L578I/L610P/L631F/L636F/L639V/L684P/L688V/L702I/L734M/L735F/L800F/L823M/L825Q/M19T/M492I/M616G/M644L/M682V/M690V/M744T/M748V/N52R/N540G/N541S/N547G/N58S/N63T/N675D/N721H/P545F/P561R/P564S/P61V/P638T/P824S/Q32K/Q536L/Q53S/Q546K/Q550E/Q555R/Q56R/Q611L/Q676H/Q757R/Q795R/Q831P/R498S/R632Q/R667S/S22P/S45E/S501P/S547N/S550A/S576L/S595F/S610P/S628F/S635P/S637R/S663R/S670G/S679G/S681F/S703N/S717H/S727G/S784D/S804G/T46A/T50G/T529S/T542A/T549I/T609V/T629S/T642S/T663I/T694M/T705I/T706G/T716I/T813A/V508I/V512P/V557A/V573A/V584A/V585L/V613L/V617M/V673M/V687A/V691A/V694A/V718L/V718M/V723A/V729T/V738A/V741L/V774I/V791M/V805L/V812A/V821L/W599R/W676R/W824R/Y533F/Y615F/Y671F/Y680C/Y769S/Y783H/Y794L)
# Sequence (Q8TE23 with tags, fused parts or gaps with the stated changes limits assumed): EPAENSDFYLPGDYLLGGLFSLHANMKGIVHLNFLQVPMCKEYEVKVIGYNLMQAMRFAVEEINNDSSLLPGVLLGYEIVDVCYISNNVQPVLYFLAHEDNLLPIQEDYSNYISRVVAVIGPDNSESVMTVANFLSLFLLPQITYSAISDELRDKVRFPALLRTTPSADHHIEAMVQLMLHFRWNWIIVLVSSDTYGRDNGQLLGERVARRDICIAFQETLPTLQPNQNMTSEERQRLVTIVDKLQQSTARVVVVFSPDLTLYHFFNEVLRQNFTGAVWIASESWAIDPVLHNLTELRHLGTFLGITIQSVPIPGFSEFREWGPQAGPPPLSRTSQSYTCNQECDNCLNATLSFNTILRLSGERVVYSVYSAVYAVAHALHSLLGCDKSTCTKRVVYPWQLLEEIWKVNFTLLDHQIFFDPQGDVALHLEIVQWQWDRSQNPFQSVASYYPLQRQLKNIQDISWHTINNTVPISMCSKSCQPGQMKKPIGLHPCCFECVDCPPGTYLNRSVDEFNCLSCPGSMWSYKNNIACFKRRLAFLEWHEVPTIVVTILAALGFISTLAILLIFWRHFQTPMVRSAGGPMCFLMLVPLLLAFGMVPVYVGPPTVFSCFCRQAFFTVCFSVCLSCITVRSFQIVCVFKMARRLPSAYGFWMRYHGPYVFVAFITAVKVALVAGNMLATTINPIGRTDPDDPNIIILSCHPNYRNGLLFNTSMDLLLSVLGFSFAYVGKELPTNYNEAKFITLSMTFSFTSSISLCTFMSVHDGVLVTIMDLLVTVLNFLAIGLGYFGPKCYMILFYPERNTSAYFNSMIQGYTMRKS
# Sequence (Q925D8 with tags, fused parts or gaps with the stated changes limits assumed): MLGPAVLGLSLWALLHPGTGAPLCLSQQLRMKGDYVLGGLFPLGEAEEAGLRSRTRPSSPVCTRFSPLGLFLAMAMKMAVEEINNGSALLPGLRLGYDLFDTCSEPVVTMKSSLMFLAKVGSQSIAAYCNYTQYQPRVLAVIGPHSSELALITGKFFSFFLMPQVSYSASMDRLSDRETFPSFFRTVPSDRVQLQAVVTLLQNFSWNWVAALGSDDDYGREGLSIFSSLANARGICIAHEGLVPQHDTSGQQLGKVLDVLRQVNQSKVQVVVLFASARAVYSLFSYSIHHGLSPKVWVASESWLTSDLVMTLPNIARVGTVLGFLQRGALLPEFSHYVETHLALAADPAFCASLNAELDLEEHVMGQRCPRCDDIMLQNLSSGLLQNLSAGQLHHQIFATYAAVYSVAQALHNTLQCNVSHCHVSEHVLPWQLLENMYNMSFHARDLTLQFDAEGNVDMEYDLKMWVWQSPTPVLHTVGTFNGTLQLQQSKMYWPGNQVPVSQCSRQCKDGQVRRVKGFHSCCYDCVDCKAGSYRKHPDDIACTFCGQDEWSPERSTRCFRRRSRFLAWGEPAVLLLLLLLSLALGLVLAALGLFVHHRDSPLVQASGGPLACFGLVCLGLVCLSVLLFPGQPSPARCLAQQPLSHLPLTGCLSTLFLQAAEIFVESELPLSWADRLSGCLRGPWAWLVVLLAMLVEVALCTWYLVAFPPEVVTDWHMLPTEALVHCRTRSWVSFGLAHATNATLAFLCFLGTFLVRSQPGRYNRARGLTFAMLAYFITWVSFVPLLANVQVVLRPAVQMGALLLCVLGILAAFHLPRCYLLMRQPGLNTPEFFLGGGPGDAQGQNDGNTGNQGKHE
# Details: Table 4; genes h-mTEX5/T3mA (h-mT1R2-EX5, T1R3mA); HEK293E cells
# Description: The HEK293E cells maintained by using the DMEM/Ham's F-12 medium (Nakarai Tesque) containing 10% fetal bovine serum ([…]) and 1% Pen Strep (GIBCO) were washed with D-PBS(−) (Nakarai Tesque), and collected from the flask by using 0.25% Trypsin EDTA (GIBCO). The cells were centrifuged (1,200 rpm, 3 minutes), and after the supernatant was removed, suspended in 5% FBS DMEM/Ham's F-12 at a density of 0.75×10^7 cell/ml. This suspension (10 ml) was put into a […] (IWAKI), and culture was performed overnight (37° C., 5% CO2). On the next day, the medium was exchanged with Opti-MEM (30 ml, Invitrogen, Life Technologies), a sweet taste receptor gene mixture (Gα15-trans48LD gene, various kinds of T1R2 chimeric genes, and various kinds of T1R3 chimeric genes, 63.8 μg in total) prepared by using Opti-MEM and Lipofectamin 2000 (Invitrogen, Life Technologies) was slowly added to the cell suspension, and incubation was performed (37° C., 5% CO2) for 6 hours to attain gene transfer.
# After the gene transfer, the cells were washed with D-PBS(−), then removed from the flask by using 0.25% Trypsin EDTA (GIBCO), and collected. After the cell number was counted, the cells were suspended in the 5% FBS DMEM medium (2.78 mM glucose, GIBCO) at a density of 0.5×10^6 cell/ml. This cell suspension was put into wells of D-Lysine coat 96-well plate (BD bioscience) in such a volume that the cell count is 7.0×10^4 cells/well, and the cells were cultured overnight.
# After the culture, all the medium of the 96 wells were discarded. 200 μl of the staining solution for measurement of intracellular calcium ion′ Calcium Assay Kit Express (Molecular Device), diluted 80 times with an assay buffer (20 mM HEPES, 146 mM NaCl, 1 mM MgSO4, 1.39 mM glucose, 1 mM CaC12, 2.5 mM Probenecid, 0.05% bovine serum albumin) was added to each well, and the plate was left standing at 37° C. for 30 minutes and at room temperature for 45 minutes to perform staining. After the staining, 50 μl of a solution of stimulant (sweet taste substance) prepared with the assay buffer was added to each well, and the fluorescence value was measured for 120 seconds after the stimulation by using FDSSμEELL (Hamamatsu Photonics). By measuring the fluorescence value (Ex. 480 nm, Em. 540 nm) before and after the stimulation, the change of the intracellular free calcium ion concentration caused by addition of the stimulant via a sweet taste receptor was quantitatively investigated. The measurement and analysis of the fluorescence value was performed by using the software attached to FDSSμEELL (FDSS7000EX), and ΔF/F value was calculated in accordance with the following equation, and used for the evaluation. ΔF/F=(Maximum fluorescence value after stimulation−Minimum fluorescence value after stimulation)/(Fluorescence value before stimulation)
# Furthermore, by using the ΔF/F values obtained when each sweet taste substance was added, the S/N ratio was calculated. Specifically, the S/N value was calculated by using the minimum value of ΔF/F obtained when each substance was added at various concentrations as noise (N) value, and the similarly obtained maximum value of ΔF/F as the signal (S) value, and used as an index for sensitivity of the measurement of the activity of each receptor. That is, a higher S/N value means a higher sensitivity for detection of an interaction of a sweet taste receptor and a test substance, which makes it easier to detect stimulation with a sweet taste substance or sweet taste-regulating substance of a lower concentration.
# The sweet taste substances used as the stimulating substance are acesulfame potassium (Tokyo Kasei Kogyo), sodium saccharin (WAKO), sucralose (SIGMA), sucrose (WAKO), and neotame (SIGMA), as well as aspartame, advantame, and SC-45647 ([3-[(S)-1-phenylethyl]-2-(4-cyanophenyl)guanidino]acetic acid, which were all synthesized in-house.
row,SMILES,S/N
1,"CC1=CC(=O)NS(=O)(=O)O1 [Acesulfame K, acesulfame potassium]",5.1
2,"COC(=O)[C@H](Cc1ccccc1)NC(=O)[C@H](CC(=O)O)NCCCc1ccc(OC)c(O)c1 [Advantame, advantame]",9.4
3,"COC(=O)[C@H](Cc1ccccc1)NC(=O)[C@@H](N)CC(=O)O [Aspartame, aspartame] (HELM PEPTIDE1{D.F.[CO[*:1]]}$$$$V2.0)",7.6
4,"COC(=O)[C@H](Cc1ccccc1)NC(=O)[C@H](CC(=O)O)NCCC(C)(C)C [Neotame, neotame]",7.5
5,"C[C@H](NC(=Nc1ccc(C#N)cc1)NCC(=O)O)c1ccccc1 [SC-45647, [3-[(S)-1-phenylethyl]-2-(4-cyanophenyl)guanidino]acetic acid]",7.3
6,"O=C1NS(=O)(=O)c2ccccc21.[Na] [Saccharin Na, sodium saccharin]",4.6
7,"OC[C@H]1O[C@H](O[C@]2(CCl)O[C@H](CCl)[C@@H](O)[C@@H]2O)[C@H](O)[C@@H](O)[C@H]1Cl [Sucralose, sucralose]",7.4
8,"OC[C@H]1O[C@@](CO)(O[C@H]2O[C@H](CO)[C@@H](O)[C@H](O)[C@H]2O)[C@@H](O)[C@@H]1O [Sucrose, sucrose]",3.5
